Measurements: ChEMBL document CHEMBL3396992, “Synthesis and biological evaluation of pyrazolylthiazole carboxylic acids as potent anti-inflammatory-antimicrobial agents” (2015)
≈ marks a conversion by molar mass, not a printed value. Calls of active or inactive are those of the source. The calls are words filed in the database; no cut-off is given here.

Columns and labels:
Escherichia coli = experiment: Antimicrobial activity against Escherichia coli MTCC 1652 assessed as growth inhibition at 4 mg/ml after 24 hrs by agar well diffusion method; type: functional, organism-based
Rattus norvegicus [1] = experiment: Antiinflammatory activity against carrageenan-induced paw edema male Wistar albino rat assessed as edema volume at 50 mg/kg, ip administered 30 mins prior to carrageenan-challenge measured after 3 hrs (reference value: 1.73 +/- 0.09 mL); type: functional; conditions: route intraperitoneal
Saccharomyces cerevisiae [2] = experiment: Antimicrobial activity against Saccharomyces cerevisiae MTCC 170 assessed as growth inhibition at 4 mg/ml after 24 hrs by agar well diffusion method; type: functional; conditions: for zone of inhibition at 4000 µg/mL: MTCC 170, 24 h, read-out: DIZ
Rattus norvegicus [3] = experiment: Antiinflammatory activity against carrageenan-induced paw edema male Wistar albino rat at 50 mg/kg, ip administered 30 mins prior to carrageenan-challenge measured after 3 hrs relative to control; type: functional; conditions: route intraperitoneal
Rattus norvegicus [4] = experiment: Antiinflammatory activity against carrageenan-induced paw edema male Wistar albino rat at 50 mg/kg, ip administered 30 mins prior to carrageenan-challenge measured after 2 hrs relative to control; type: functional; conditions: route intraperitoneal
Pseudomonas aeruginosa = conditions: MTCC 741, 4 mg/ml
Description: Antimicrobial activity against Pseudomonas aeruginosa MTCC 741 assessed as growth inhibition at 4 mg/ml after 24 hrs by agar well diffusion method

Rattus norvegicus [5] = experiment: Antiinflammatory activity against carrageenan-induced paw edema male Wistar albino rat at 50 mg/kg, ip administered 30 mins prior to carrageenan-challenge measured after 1 hr relative to control; type: functional; conditions: route intraperitoneal
Staphylococcus aureus [6] = experiment: Antimicrobial activity against Staphylococcus aureus MTCC 96 assessed as growth inhibition after 24 hrs by agar well diffusion method; type: functional
Saccharomyces cerevisiae [7] = experiment: Antimicrobial activity against Saccharomyces cerevisiae MTCC 170 assessed as growth inhibition after 24 hrs by agar well diffusion method; type: functional
Rattus norvegicus [8] = experiment: Antiinflammatory activity against carrageenan-induced paw edema male Wistar albino rat assessed as edema volume at 50 mg/kg, po administered 30 mins prior to carrageenan-challenge measured after 1 hr (reference value: 1.11 +/- 0.12 mL); type: functional
Bacillus subtilis [9] = experiment: Antimicrobial activity against Bacillus subtilis MTCC 121 assessed as growth inhibition after 24 hrs by agar well diffusion method; type: functional
Rattus norvegicus [10] = experiment: Antiinflammatory activity against carrageenan-induced paw edema male Wistar albino rat assessed as edema volume at 50 mg/kg, ip administered 30 mins prior to carrageenan-challenge measured after 2 hrs (reference value: 1.21 +/- 0.16 mL); type: functional; conditions: route intraperitoneal
Candida albicans [11] = experiment: Antimicrobial activity against Candida albicans MTCC 3017 assessed as growth inhibition at 4 mg/ml after 24 hrs by agar well diffusion method; type: functional; conditions: MTCC 3017, 24 h, read-out: DIZ
Staphylococcus aureus [12] = experiment: Antimicrobial activity against Staphylococcus aureus MTCC 96 assessed as growth inhibition at 4 mg/ml after 24 hrs by agar well diffusion method; type: functional; conditions: for zone of inhibition at 4000 µg/mL: MTCC 96, 24 h, read-out: DIZ
Rattus norvegicus [13] = experiment: Antiinflammatory activity against carrageenan-induced paw edema male Wistar albino rat at 50 mg/kg, ip administered 30 mins prior to carrageenan-challenge measured after 4 hrs relative to control; type: functional; conditions: route intraperitoneal
Bacillus subtilis [14] = experiment: Antimicrobial activity against Bacillus subtilis MTCC 121 assessed as growth inhibition at 4 mg/ml after 24 hrs by agar well diffusion method; type: functional; conditions: for zone of inhibition at 4000 µg/mL: MTCC 121, 24 h, read-out: DIZ
Candida albicans [15] = experiment: Antimicrobial activity against Candida albicans MTCC 3017 assessed as growth inhibition after 24 hrs by agar well diffusion method; type: functional; conditions: MTCC 3017, 24 h
Rattus norvegicus [16] = experiment: Antiinflammatory activity against carrageenan-induced paw edema male Wistar albino rat assessed as edema volume at 50 mg/kg, ip administered 30 mins prior to carrageenan-challenge measured after 4 hrs (reference value: 1.88 +/- 0.20 mL); type: functional; conditions: route intraperitoneal

Row | Structure (SMILES) | diameter of the inhibition zone (DIZ) (Escherichia coli) | Activity (Rattus norvegicus [1]) | diameter of the inhibition zone (DIZ) (Saccharomyces cerevisiae [2]) | Activity (Rattus norvegicus [3]) | Activity (Rattus norvegicus [4]) | DIZ (Pseudomonas aeruginosa) | Activity (Rattus norvegicus [5]) | MIC (Staphylococcus aureus [6]) | MIC (Saccharomyces cerevisiae [7]) | Activity (Rattus norvegicus [8]) | Activity (Rattus norvegicus [10]) | zone of inhibition at 4000 µg/mL (Candida albicans [11]) | diameter of the inhibition zone (DIZ) (Staphylococcus aureus [12]) | Activity (Rattus norvegicus [13]) | MIC (Candida albicans [15]) | Activity (Rattus norvegicus [16]) | MIC (Bacillus subtilis [9]; MTCC 121, 24 h) | zone of inhibition at 4000 µg/mL (Bacillus subtilis [14]) | zone of inhibition at 4000 µg/mL (Saccharomyces cerevisiae [2]) | MIC (Saccharomyces cerevisiae [7]; MTCC 170, 24 h) | further results
1 | CCOC(=O)c1sc(-c2cn(-c3ccccc3)nc2-c2ccccc2)nc1-c1ccc(Cl)cc1 | inactive | 0.24 mL | inactive | 87.23% | 87.6% | inactive | 80.18% | inactive | inactive | 0.22 mL | 0.15 mL | 17.3 mm | inactive | 87.23% | 50 µg/mL (≈ 103 µM) | 0.22 mL |  |  |  |  | MIC (Bacillus subtilis [9]): inactive; diameter of the inhibition zone (DIZ) (Bacillus subtilis [14]): inactive
2 | CCOC(=O)c1sc(-c2cn(-c3ccccc3)nc2-c2ccccc2)nc1-c1ccc(OC)cc1 | inactive | 0.24 mL | inactive | 86.12% | 76.03% | inactive | 80.18% | inactive | inactive | 0.22 mL | 0.29 mL | 16.3 mm | inactive | 81.91% | 50 µg/mL (≈ 104 µM) | 0.34 mL | 50 µg/mL (≈ 104 µM) | 13.6 mm |  |  | 
3 | COc1ccc(-c2nn(-c3ccccc3)cc2-c2nc(-c3ccccc3)c(C(=O)O)s2)cc1 | inactive | 0.21 mL |  | 87.86% | 86.77% | inactive | 81.98% |  |  | 0.2 mL | 0.16 mL | 16.3 mm |  | 87.76% | 50 µg/mL (≈ 110 µM) | 0.23 mL | 25 µg/mL (≈ 55.1 µM) | 18.6 mm | 16 mm | 50 µg/mL (≈ 110 µM) | MIC (Staphylococcus aureus [6]; MTCC 96, 24 h): 25 µg/mL (≈ 55.1 µM); zone of inhibition at 4000 µg/mL (Staphylococcus aureus [12]): 21.6 mm
4 | CCOC(=O)c1sc(-c2cn(-c3ccccc3)nc2-c2ccc(F)cc2)nc1-c1ccc(F)cc1 | inactive | 0.32 mL | inactive | 81.5% | 79.33% | inactive | 85.58% | inactive | inactive | 0.16 mL | 0.25 mL | 22.6 mm | inactive | 87.76% | 12.5 µg/mL (≈ 25.6 µM) | 0.23 mL | 50 µg/mL (≈ 103 µM) | 15.6 mm |  |  | 
5 | COc1ccc(-c2nn(-c3ccccc3)cc2-c2nc(-c3ccc(Cl)cc3)c(C(=O)O)s2)cc1 | inactive | 0.28 mL |  | 83.81% | 78.51% | inactive | 83.78% |  |  | 0.18 mL | 0.26 mL | 27.6 mm |  | 89.36% | 6.25 µg/mL (≈ 12.8 µM) | 0.2 mL | 6.25 µg/mL (≈ 12.8 µM) | 29.6 mm | 27.6 mm | 6.25 µg/mL (≈ 12.8 µM) | MIC (Staphylococcus aureus [6]; MTCC 96, 24 h): 6.25 µg/mL (≈ 12.8 µM); zone of inhibition at 4000 µg/mL (Staphylococcus aureus [12]): 24.6 mm
6 | CCOC(=O)c1sc(-c2cn(-c3ccccc3)nc2-c2ccc(Cl)cc2)nc1-c1ccc(Cl)cc1 | inactive | 0.12 mL |  | 93.06% | 77.68% | inactive | 83.78% | inactive |  | 0.18 mL | 0.27 mL | 13 mm | inactive | 90.42% | 50 µg/mL (≈ 96.1 µM) | 0.18 mL |  |  | 15 mm | 50 µg/mL (≈ 96.1 µM) | MIC (Bacillus subtilis [9]): inactive; diameter of the inhibition zone (DIZ) (Bacillus subtilis [14]): inactive
